Results reported in patent US6960568B2, “Nucleosides and related processes, pharmaceutical compositions and methods” (Yale University, priority 2002, dated 2005).

Assays:
L1210 leukemia cells = test: Cytotoxicity against L1210 leukemia cell line in vitro; assay type: cell-based; settings: Mus musculus, drug concentration required to inhibit cancer cell replication by 50%, tested up to 100 μM
Experimental: (§1) The synthesized compounds were evaluated in vitro for their cytotoxicity against the L1210 and P388 leukemias, the CCRF-CEM lymphoblastic leukemia, and the B16F10 melanoma cell lines and the results are shown in Table 2.

P388 leukemia cells = test: Cytotoxicity against P388 leukemia cell line in vitro; assay type: cell-based; settings: Mus musculus, drug concentration required to inhibit cancer cell replication by 50%, tested up to 100 μM
Experimental: as §1

[1] = test system: CCRF-CEM lymphoblastic leukemia cells; test: Cytotoxicity against CCRF-CEM lymphoblastic leukemia cell line in vitro; assay type: cell-based; settings: Homo sapiens, drug concentration required to inhibit cancer cell replication by 50%, tested up to 100 μM
Experimental: as §1

B16F10 melanoma cells = test: Cytotoxicity against B16F10 melanoma cell line in vitro; assay type: cell-based; settings: Mus musculus, B16-F10; drug concentration required to inhibit cancer cell replication by 50%; tested up to 100 μM
Experimental: as §1

[2] = test system: L1210, P388, CCRF-CEM and B16F10 cells; test: Cytotoxicity against the panel of neoplastic cell lines, summary in words; assay type: cell-based; settings: concentrations up to 100 μM
Experimental: as §1

hepatitis B virus (HBV) = test: Antiviral assay against hepatitis B virus in vitro; assay type: cell-based; settings: maximum tested concentration 10 μM
Experimental: Antiviral assays were performed against hepatitis B virus (HBV) and human immunodeficiency virus (HIV-IIIB) in vitro as previously described. Lin, T. S.; Luo, M. Z.; Liu, M. C.; Pai, S. B.; Dutschman, G. E.; Cheng, Y. C., J. Med. Chem. 1994 37, 798-803.

| SMILES | melting point | EC50 (hepatitis B virus (HBV)) [µM] | IC50 (L1210 leukemia cells) [µM] | IC50 (P388 leukemia cells) [µM] | IC50 [1] [µM] | IC50 (B16F10 melanoma cells) [µM] | activity against these neoplastic cell lines (in words) [2] |
| --- | --- | --- | --- | --- | --- | --- | --- |
| Nc1nc(F)cc2c1ncn2[C@@H]1O[C@H](CO)[C@@H](O)[C@H]1O [Compound 38, 4-Amino-6-fluoro-1-(β-D-ribofuranosyl)imidazo[4,5-c]pyridine] | – | – | 35 | 50 | 100 | 40 | moderate to weak activities |
| CNc1nc(F)cc2c1ncn2[C@@H]1O[C@H](CO)[C@@H](O)[C@H]1O [Compound 39, 6-Fluoro-4-methylamino-1-(β-D-ribofuranosyl)imidazo[4,5-c]pyridine] | – | – | > 100 | > 100 | 100 | > 100 | – |
| Nc1nc(F)cc2c1ncn2[C@@H]1O[C@H](CO)[C@@H](O)[C@@H]1O [Compound 43, 4-Amino-6-fluoro-1-β-D-arabinofuranosylimidazo[4,5-c]pyridine] | – | – | > 100 | > 100 | > 100 | > 100 | – |
| Nc1ncc(Cl)c2c1ncn2[C@@H]1O[C@H](CO)[C@@H](O)[C@H]1O [Compound 52, 4-Amino-7-chloro-1-(β-D-ribofuranosyl)imidazo[4,5-c]pyridine] | 169 °C (dec.) | – | > 100 | > 100 | > 100 | > 100 | – |
| Nc1nc(F)c(F)c2ncn([C@@H]3O[C@H](CO)[C@@H](O)[C@H]3O)c12 [Compound 58, 4-Amino-6,7-difluoro-3-(β-D-ribofuranosyl)imidazo[4,5-c]pyridine] | 155 to 157 °C | ≥ 10 | > 100 | > 100 | > 100 | > 100 | – |
| Nc1[nH]c(=O)c2ncn([C@@H]3O[C@H](CO)[C@@H](O)[C@H]3O)c2c1Cl [Compound 61, 6-Amino-7-chloro-1,5-dihydro-1-β-D-ribofuranosylimidazo[4,5-c]pyridin-4-one] | – | – | 12 | 40 | 30 | 35 | – |
| Nc1[nH]c(=O)c2ncn([C@@H]3O[C@H](CO)[C@@H](O)[C@H]3O)c2c1Br [Compound 62, 6-Amino-7-bromo-1,5-dihydro-1-β-D-ribofuranosylimidazo[4,5-c]pyridin-4-one] | – | – | 3 | 7 | 9 | 7 | – |

The next lines start with results.

| melting point | EC50 (hepatitis B virus (HBV)) [µM] | SMILES | IC50 (L1210 leukemia cells) [µM] | IC50 (P388 leukemia cells) [µM] | IC50 [1] [µM] | IC50 (B16F10 melanoma cells) [µM] | activity against these neoplastic cell lines (in words) [2] |
| --- | --- | --- | --- | --- | --- | --- | --- |
| 198 °C (dec.) | – | Nc1nc(F)cc2c1ncn2[C@H]1O[C@H](CO)[C@@H](O)[C@@H]1O [Compound 44, 4-Amino-6-fluoro-1-α-D-arabinofuranosylimidazo[4,5-c]pyridine] | > 100 | > 100 | > 100 | > 100 | – |
| – | 9.2 | Nc1ncc(F)c2c1ncn2[C@@H]1O[C@H](CO)[C@@H](O)[C@H]1O [Compound 51, 4-Amino-7-fluoro-1-(β-D-ribofuranosyl)imidazo[4,5-c]pyridine] | 15 | 100 | 60 | 45 | moderate to weak activities |
| 163 to 165 °C | – | Nc1nc(F)c(F)c2c1ncn2[C@@H]1O[C@H](CO)[C@@H](O)[C@H]1O [Compound 57, 4-Amino-6,7-difluoro-1-(β-D-ribofuranosyl)imidazo[4,5-c]pyridine] | 90 | 90 | 40 | 100 | moderate to weak activities |
| 175 to 177 °C | 7.5 | Nc1nc(F)c(Cl)c2c1ncn2[C@@H]1O[C@H](CO)[C@@H](O)[C@H]1O [Compound 59, 4-Amino-7-chloro-6-fluoro-1-(β-D-ribofuranosyl)imidazo[4,5-c]pyridine] | 55 | 90 | 60 | 100 | moderate to weak activities |
| 166 to 168 °C | – | Nc1nc(F)c(Cl)c2ncn([C@@H]3O[C@H](CO)[C@@H](O)[C@H]3O)c12 [Compound 60, 4-Amino-7-chloro-6-fluoro-3-(β-D-ribofuranosyl)imidazo[4,5-c]pyridine] | > 100 | > 100 | > 100 | > 100 | – |
